In patent US20260199323A1, “LIGAND COMPOUNDS FOR E3 UBIQUITIN LIGASE, PROTEIN DEGRADERS DEVELOPED ON BASIS OF LIGAND COMPOUNDS, AND USES THEREOF” (GLUETACS THERAPEUTICS (SHANGHAI) CO., LTD., priority 2021, published 2026):
Where two headings read alike, the source gives them in different places.

What was measured:
[1] = system: CCRF-CEM; assay: CCK-8 tumor cell proliferation, CCRF-CEM; format: cell-based, Human; set-up: IC50 for inhibiting the proliferation of tumor cells, CCRF-CEM: scale not given here; settings: for IC50 for inhibiting the proliferation of tumor cells, CCRF-CEM: 96 h; for IC50: Homo sapiens, Table 18, FAK inhibitor based, CCRF-CEM, read-out: IC50 inhibiting proliferation of tumor cells, CCRF-CEM
Experimental: (§1) The tumor cells used herein were cultured in a cell culture medium listed in table 4 at 37° C. in an incubator with 5% CO2. Prior to experimentation, all cells used were correctly identified by STR profiling, and tested negative for mycoplasma through routine screenings.
(§2) IC50 values of the compounds of the present disclosure (including the compounds in Tables 1 and 3, and compounds of examples) were measured using the Meilun Cell Counting Kit-8 kit from Dalian Meilun Biotech Co., Ltd. Assay details are as follows: tumor cells were seeded in a 96-well plate at a density listed in Table 5. After 24 h, 100 μL of the inoculated cells were treated with 0.5 μL of the compounds of the present disclosure (including the compounds in Tables 1 and 3, and compounds of examples) at 10 different successively decreasing concentrations (starting at the highest concentration of 10 μM; 5-fold serial dilutions). After the cells were treated with the compounds of the present disclosure for a period of time, the cell viability detection reagent was added to the culture medium for cell viability assessment according to the instructions provided with the CCK-8 kit. […] The growth inhibition of the compounds of the present disclosure on cells was plotted by Prism Graphpad software, and the IC50 values of the compounds of the present disclosure were calculated therefrom.

[2] = system: Kasumi-1; assay: CCK-8 tumor cell proliferation, Kasumi-1; format: cell-based, Human; settings: 72 h
Experimental: as §1, §2

[3] = system: MM.1S; assay: CCK-8 tumor cell proliferation, MM.1S; format: cell-based; settings: for IC50 for inhibiting the proliferation of tumor cells, MM.1S: 72 h; for IC50: Homo sapiens, MM1.S, Table 18, FAK inhibitor based, MM.1S, read-out: IC50 inhibiting proliferation of tumor cells, MM.1S
Experimental: as §1, §2

[4] = system: SR; assay: CCK-8 tumor cell proliferation, SR; format: cell-based, Human; settings: Table 12, designed based on CDK9 inhibitors; 72 h
Experimental: as §1, §2

[5] = system: Mino; assay: CCK-8 tumor cell proliferation, Mino; format: cell-based, Human; settings: for IC50 for inhibiting the proliferation of tumor cells, Mino: 72 h; for IC50: Homo sapiens, Table 18, FAK inhibitor based, Mino, read-out: IC50 inhibiting proliferation of tumor cells, Mino
Experimental: as §1, §2

[6] = system: MDA-MB-231; assay: CCK-8 tumor cell proliferation, MDA-MB-231; format: cell-based, Human; settings: Homo sapiens; Table 18, FAK inhibitor based; MDA-MB-231; read-out: IC50 inhibiting proliferation of tumor cells, MDA-MB-231
Experimental: as §1, §2

[7] = system: CAL-62; assay: CCK-8 tumor cell proliferation, CAL-62; format: cell-based, Human; settings: Homo sapiens, CAL-62
Experimental: as §1, §2

[8] = system: SW620; assay: CCK-8 tumor cell proliferation, SW620; format: cell-based, Human; settings: Homo sapiens, SW-620; Table 18, FAK inhibitor based; SW620; read-out: IC50 inhibiting proliferation of tumor cells, SW620
Experimental: as §1, §2

[9] = system: PC-9; assay: CCK-8 tumor cell proliferation, PC-9; format: cell-based, Human; settings: Homo sapiens; Table 18, FAK inhibitor based; PC-9; read-out: IC50 inhibiting proliferation of tumor cells, PC-9
Experimental: The tumor cells used herein were cultured in a cell culture medium listed in table 4 at 37° C. in an incubator with 5% CO2.
as §2, with “After” for “IC50 values of the compounds of the present disclosure (including the compounds in Tables 1 and 3, and compounds of examples) were measured using the Meilun Cell Counting Kit-8 kit from Dalian Meilun Biotech Co., Ltd. Assay details are as follows: tumor cells were seeded in a 96-well plate at a density listed in Table 5. After”

[10] = system: MM.1R; assay: CCK-8 tumor cell proliferation, MM.1R; format: cell-based
Experimental: as §1, §2

[11] = system: Jurkat; assay: CCK-8 tumor cell proliferation, Jurkat; format: cell-based, Human; settings: Homo sapiens
Experimental: as §1, §2

[12] = Table 16, designed based on BET inhibitors
[13] = Table 8, designed based on ER inhibitors
[14] = Table 18, FAK inhibitor based, read-out: IC50 inhibiting proliferation of tumor cells, CAL-62
[15] = Table 7, designed based on BTK inhibitors
[16] = Table 23, compared to Comparative Example compounds, read-out: Inhibitory activity (IC50, nM) against tumor cell proliferation, MM.1R
[17] = Table 23, compared to Comparative Example compounds, read-out: Inhibitory activity (IC50, nM) against tumor cell proliferation, Jurkat
[18] = Table 23, compared to Comparative Example compounds, read-out: Inhibitory activity (IC50, nM) against tumor cell proliferation, CAL-62
[19] = Table 19, IRAK4 inhibitor based, read-out: IC50 inhibiting proliferation of tumor cells, MM.1R
[20] = Table 19, IRAK4 inhibitor based, read-out: IC50 inhibiting proliferation of tumor cells, Jurkat
[21] = Table 19, IRAK4 inhibitor based, read-out: IC50 inhibiting proliferation of tumor cells, CAL-62

With Cc1sc2c(c1C)C(c1ccc(Cl)cc1)=N[C@@H](CC(=O)N1CCN(Cc3ccc4c(c3)CN(C3CCC(=O)NC3=O)C4=O)CC1)c1nnc(C)n1-2 (stereo partly drawn) [GT-02967, 3-(5-((4-(2-((S)-4-(4-chlorophenyl)-2,3,9-trimethyl-6H-thieno[3,2-f][1,2,4]triazolo[4,3-a][1,4]diazepin-6-yl)acetyl)piperazin-1-yl)methyl)-1-oxoisoindolin-2-yl)piperidine-2,6-dione] the “IC50 for inhibiting the proliferation of tumor cells, CCRF-CEM” value [1, 12] was “A+” and the “IC50 for inhibiting the proliferation of tumor cells, Kasumi-1” value [2, 12] was “A+”.

CC(C)(C)c1cnc(CSc2cnc(NC(=O)C3CCN(Cc4ccc5c(c4)CN(C4CCC(=O)NC4=O)C5=O)CC3)s2)o1 (stereo not shown) [GT-03242, N-(5-(((5-(tert-butyl)oxazol-2-yl)methyl)thio)thiazol-2-yl)-1-((2-(2,6-dioxopiperidin-3-yl)-1-oxoisoindolin-5-yl)methyl)piperidine-4-carboxamide] was tested, and the “IC50 for inhibiting the proliferation of tumor cells, MM.1S” value ([3]; Table 12, designed based on CDK9 inhibitors) was “A+” and the “IC50 for inhibiting the proliferation of tumor cells, SR” value [4] was “A+”.

In the case of O=C1CCC(N2Cc3cc(CN4CCN(c5ccc(C(=C(CCCl)c6ccccc6)c6ccccc6)cc5)CC4)ccc3C2=O)C(=O)N1 (stereo not shown) [GT-03637, 3-(5-((4-(4-(4-chloro-1,2-diphenylbut-1-en-1-yl)phenyl)piperazin-1-yl)methyl)-1-oxoisoindolin-2-yl)piperidine-2,6-dione], the “IC50 for inhibiting the proliferation of tumor cells, CCRF-CEM” value [1, 13] is reported as “A+”, the “IC50 for inhibiting the proliferation of tumor cells, Mino” value [5, 13] is reported as “A+” and the “IC50 for inhibiting the proliferation of tumor cells, Kasumi-1” value [2, 13] is reported as “A+”.

For CNC(=O)c1ccccc1Nc1cc(Nc2ccc(N3CCC(N(C)Cc4ccc5c(c4)CN(C4CCC(=O)NC4=O)C5=O)CC3)cc2OC)ncc1C(F)(F)F (stereo not shown) [GT-03679, 2-((2-((4-(4-(((2-(2,6-dioxopiperidin-3-yl)-1-oxoisoindolin-5-yl)methyl)(methyl)amino)piperidin-1-yl)-2-methoxyphenyl)amino)-5-(trifluoromethyl)pyridin-4-yl)amino)-N-methylbenzamide], the IC50 [1] was 500 to 1000 nM, the IC50 [6] was less than 50 nM and the IC50 [3] was 100 to 500 nM. For the same compound, the IC50 [7, 14] was 50 to 100 nM and the IC50 [8] was 100 to 500 nM.

With NC(=O)c1ccc(C2CCN(Cc3ccc4c(c3)CN(C3CCC(=O)NC3=O)C4=O)CC2)nc1-c1ccc(Oc2ccccc2)cc1 (stereo not shown) [GT-03693, 6-(1-((2-(2,6-dioxopiperidin-3-yl)-1-oxoisoindolin-5-yl)methyl)piperidin-4-yl)-2-(4-phenoxyphenyl)nicotinamide] the “IC50 for inhibiting the proliferation of tumor cells, CCRF-CEM” value [1, 15] was “A+”, the “IC50 for inhibiting the proliferation of tumor cells, Mino” value [5, 15] was “A+” and the “IC50 for inhibiting the proliferation of tumor cells, MM.1S” value [3, 15] was “A+”.

For CS(=O)(=O)c1cccc(CNc2nc(Nc3ccc(N4CCN(Cc5ccc6c(c5)CN(C5CCC(=O)NC5=O)C6=O)CC4)cc3)ncc2C(F)(F)F)c1 (stereo not shown) [GT-03792, 3-(5-((4-(4-((4-((3-(methylsulfonyl)benzyl)amino)-5-(trifluoromethyl)pyrimidin-2-yl)amino)phenyl)piperazin-1-yl)methyl)-1-oxoisoindolin-2-yl)piperidine-2,6-dione], the IC50 [1] was less than 50 nM, the IC50 [5] was 100 to 500 nM and the IC50 [6] was less than 50 nM. It also gave an IC50 [3] of less than 50 nM, an IC50 [7, 14] of less than 50 nM and an IC50 [9] of 1000 to 5000 nM. For the same compound, the IC50 [8] was less than 50 nM.

In the case of CS(=O)(=O)c1cccc(CNc2nc(Nc3ccc(N4CCN(Cc5ccc6c(c5F)CN(C5CCC(=O)NC5=O)C6=O)CC4)cc3)ncc2C(F)(F)F)c1 (stereo not shown) [GT-03817, 3-(4-fluoro-5-((4-(4-((4-((3-(methylsulfonyl)benzyl)amino)-5-(trifluoromethyl)pyrimidin-2-yl)amino)phenyl)piperazin-1-yl)methyl)-1-oxoisoindolin-2-yl)piperidine-2,6-dione], the IC50 [1] is reported as less than 50 nM, the IC50 [5] is reported as 50 to 100 nM and the IC50 [6] is reported as less than 50 nM. The IC50 [3] was less than 50 nM, the IC50 [7, 14] was less than 50 nM and the IC50 [8] was less than 50 nM.

CS(=O)(=O)c1cccc(CNc2nc(Nc3ccc(N4CCN(Cc5cc6c(cc5F)C(=O)N(C5CCC(=O)NC5=O)C6)CC4)cc3)ncc2C(F)(F)F)c1 (stereo not shown) [GT-03818, 3-(6-fluoro-5-((4-(4-((4-((3-(methylsulfonyl)benzyl)amino)-5-(trifluoromethyl)pyrimidin-2-yl)amino)phenyl)piperazin-1-yl)methyl)-1-oxoisoindolin-2-yl)piperidine-2,6-dione] showed an IC50 [1] of less than 50 nM, an IC50 [5] of less than 50 nM and an IC50 [6] of less than 50 nM. For the same compound, the IC50 [3] was less than 50 nM, the IC50 [7, 14] was less than 50 nM and the IC50 [8] was less than 50 nM.

For CCc1cc2c(cc1N1CCC(N3CCN(CCCc4ccc5c(c4)CN(C4CCC(=O)NC4=O)C5=O)CC3)CC1)C(C)(C)c1[nH]c3cc(C#N)ccc3c1C2=O (stereo not shown) [GT-04457, 8-(4-(4-(3-(2-(2,6-dioxopiperidin-3-yl)-1-oxoisoindolin-5-yl)propyl)piperazin-1-yl)piperidin-1-yl)-9-ethyl-6,6-dimethyl-11-oxo-6,11-dihydro-5H-benzo[b]carbazole-3-carbonitrile], the IC50 [10, 16] was 5000 to 10000 nM, the IC50 [11, 17] was 100 to 500 nM and the IC50 [7, 18] was 5000 to 10000 nM.

With CCc1cc2c(cc1N1CCC(N3CCN(CCc4ccc5c(c4)CN(C4CCC(=O)NC4=O)C5=O)CC3)CC1)C(C)(C)c1[nH]c3cc(C#N)ccc3c1C2=O (stereo not shown) [GT-04512, 8-(4-(4-(2-(2-(2,6-dioxopiperidin-3-yl)-1-oxoisoindolin-5-yl)ethyl)piperazin-1-yl)piperidin-1-yl)-9-ethyl-6,6-dimethyl-11-oxo-6,11-dihydro-5H-benzo[b]carbazole-3-carbonitrile] the IC50 [10, 16] was 1000 to 5000 nM, the IC50 [11, 17] was 100 to 500 nM and the IC50 [7, 18] was 1000 to 5000 nM.

COc1cc(N2CCC(N(C)CCc3ccc4c(c3)CN(C3CCC(=O)NC3=O)C4=O)CC2)ccc1Nc1ncc(Cl)c(Nc2ccccc2P(C)(C)=O)n1 (stereo not shown) [GT-04513, 3-(5-(2-((1-(4-((5-chloro-4-((2-(dimethylphosphoryl)phenyl)amino)pyrimidin-2-yl)amino)-3-methoxyphenyl)piperidin-4-yl)(methyl)amino)ethyl)-1-oxoisoindolin-2-yl)piperidine-2,6-dione] showed an IC50 [10, 16] of 100 to 500 nM, an IC50 [11, 17] of 1000 to 5000 nM and an IC50 [7, 18] of 1000 to 5000 nM.

With CC(C)(O)c1cc2nc(C3CCN(Cc4ccc5c(c4F)CN(C4CCC(=O)NC4=O)C5=O)CC3)oc2cc1NC(=O)c1cccc(C(F)(F)F)n1 (stereo not shown) [GT-04518, N-(2-(1-((2-(2,6-dioxopiperidin-3-yl)-4-fluoro-1-oxoisoindolin-5-yl)methyl)piperidin-4-yl)-5-(2-hydroxypropan-2-yl)benzo[d]oxazol-6-yl)-6-(trifluoromethyl)picolinamide] the IC50 [10, 19] was 50 to 100 nM, the IC50 [11, 20] was less than 50 nM and the IC50 [7, 21] was 100 to 500 nM.

For CC(C)(O)c1cc2nc(C3CCN(Cc4cc5c(cc4F)C(=O)N(C4CCC(=O)NC4=O)C5)CC3)oc2cc1NC(=O)c1cccc(C(F)(F)F)n1 (stereo not shown) [GT-04519, N-(2-(1-((2-(2,6-dioxopiperidin-3-yl)-6-fluoro-1-oxoisoindolin-5-yl)methyl)piperidin-4-yl)-5-(2-hydroxypropan-2-yl)benzo[d]oxazol-6-yl)-6-(trifluoromethyl)picolinamide], the IC50 [10, 19] was less than 50 nM, the IC50 [11, 20] was less than 50 nM and the IC50 [7, 21] was less than 50 nM.
